Data taken from patent US20220193242A1, “IMMUNOPHILIN-DEPENDENT INHIBITORS AND USES THEREOF” (The Regents of the University of California, priority 2019, published 2022).

Experiments:
Src and HA-FKBP12 = target: T1, Src and HA-FKBP12 (Homo sapiens, UniProt P12931+P62942); assay: Immunoprecipitation of HA-FKBP12 from Jurkat cell lysate; format: binding; settings: Jurkat cell lysate 1 mg/mL, 1 μM compound
T1 construct: endogenous in cells; host or cells: Jurkat cell lysate (Src); HA-FKBP12 added as purified protein
T1 sequence (P12931 2-536 limits assumed): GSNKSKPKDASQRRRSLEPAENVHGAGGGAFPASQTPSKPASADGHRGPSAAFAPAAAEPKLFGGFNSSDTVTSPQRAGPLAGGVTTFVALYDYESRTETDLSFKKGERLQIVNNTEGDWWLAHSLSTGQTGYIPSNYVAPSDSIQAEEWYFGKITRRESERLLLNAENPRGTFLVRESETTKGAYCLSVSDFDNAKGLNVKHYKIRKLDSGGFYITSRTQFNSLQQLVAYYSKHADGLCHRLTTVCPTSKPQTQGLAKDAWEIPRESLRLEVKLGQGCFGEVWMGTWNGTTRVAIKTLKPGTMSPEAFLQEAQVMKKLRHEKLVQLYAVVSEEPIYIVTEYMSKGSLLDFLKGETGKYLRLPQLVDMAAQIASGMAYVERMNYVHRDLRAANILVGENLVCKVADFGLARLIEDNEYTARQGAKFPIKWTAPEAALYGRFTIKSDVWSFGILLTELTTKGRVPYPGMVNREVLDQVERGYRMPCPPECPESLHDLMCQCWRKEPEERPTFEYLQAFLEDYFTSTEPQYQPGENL
T1 sequence (P62942 whole entry): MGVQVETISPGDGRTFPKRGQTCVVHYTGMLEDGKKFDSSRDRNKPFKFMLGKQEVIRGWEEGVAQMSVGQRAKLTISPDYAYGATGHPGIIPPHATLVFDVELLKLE
Method: FIGS. 2A-2C. […] Fractions of 0.5 mL were collected and analyzed by SDS-PAGE.
FIG. 23. […] Pulldown was performed with Jurkat cell lysate (1 mg/mL, 200 μL), supplemented with 2 μg HA-FKBP12. Pulldown/wash buffer: 50 mM Tris 7.4, 120 mM NaCl, 1% NP-40, 1 mM EDTA, phosphatase/protease inhibitors.

LRRK2 = assay: Inhibition of LRRK2 autophosphorylation; format: cell-based
Method: (§1) FIGS. 4A-4C. A general approach to construct FKBP-dependent, programmable kinase inhibitors. (FIG. 4A) Structures of lapatinib and FK-lapatinib, their effects on HER2 signaling and the growth inhibition of SK-BR-3 cells by these compounds. (FIGS. 4B-4C) Structures of GNE7915 and FK-GNE7915 and their inhibition of LRRK2 autophosphorylation.
FIG. 30. […] 3T3 or RAW264.7 cells (MJFF cell line), 2 h treatment.
(§2) We extended our design strategy and prepared two other bispecific ligands based on the structures of an FDA-approved HER2/EGFR inhibitor (lapatinib) and an LRRK2 inhibitor in clinical development (GNE7915). […] With the three case studies presented above, we cautiously anticipate that the same workflow could be applied to convert other kinase inhibitors into FKBP-dependent formats with similar if not better cellular activities.

KRAS and CypA = KRAS and CypA (Homo sapiens, UniProt P01116+P62937, G12C); assay: Melting curve of the KRAS.CypA complex; format: binding
[1] = tested on: 139 kinases captured by the probe XO44; assay: In-cell kinase occupancy profiling with chemoproteomic probe XO44 in Jurkat cells; format: cell-based; settings: 100 nM, among 139 kinases captured by XO44, Jurkat cells
[2] = tested on: phosphotyrosine levels in Jurkat cells; assay: Drug washout, phosphotyrosine levels over 24 h in Jurkat cells; format: cell-based; settings: 100 nM for 1 h
Method: (§3) FIGS. 3A-3D. […] The phosphotyrosine levels were monitored by Western blot at various time points over 24 h.
FIG. 26. […] Jurkat cells (1×10^6/mL) were treated with 100 nM of the indicated compounds for 1 h, then were washed 3 times with PBS and resuspended in culture media. Samples were taken at the indicated time points and lysed immediately.

FKBP12 [3] = target: T2, FKBP12 (Homo sapiens, UniProt P62942); assay: FKBP12 dependence of activity (FIG. 19)
T2 sequence (P62942 whole entry): as above

[4] = tested on: TCR signaling (phospho-tyrosine) in Jurkat cells; assay: CD3 crosslinking (OKT3) triggered T cell activation in Jurkat cells, Western blot; format: cell-based
Method: as §3
FIG. 25. […] Jurkat cells (1×10^6/mL) were treated with the indicated drugs for 1 h, then stimulated with anti-CD3 mAb OKT3 (5 μg/mL) for 5 min. before lysis and analysis.

K562 = settings: K562, 72 h treatment
Method: FIG. 27. […] K562 (seeding density 5×10^4/mL) cells, 72 h treatment.

HRAS, CypA, Sos = HRAS, CypA, Sos (Homo sapiens, UniProt P01112+P62937, M72C); assay: HRAS.CypA ternary complex and Sos-mediated nucleotide exchange; format: biochemical
Method: FIG. 44. […] Assay conditions: 1 μM Ras.GDP, 1 μM Mant-GDP, 20 mM EPES 7.5, 150 mM NaCl, 10 mM EDTA or 1 μM Sos. 95A is synonymous to 06-031.

Ras.Raf binding = Ras.Raf binding pulldown; settings: HRAS.CypA ternary complex
Method: FIG. 45. […] Pulldown conditions: 100 nM KRAS, 50 μg/mL BSA, 20 mM HEPES 7.5, 150 mM NaCl, 5 mM MgCl2, 1 mM […], 1% NP-40. GppNHp loaded proteins were prepared by EDTA-mediated nucleotide exchange.

FKBP12 [5] = target: T2, FKBP12; assay: Fluorescence polarization assay of binding to FKBP12
SK-BR-3 cells = assay: Growth inhibition of SK-BR-3 cells; format: cell-based
Description: as §1, §2

HER2 = HER2 signaling in SK-BR-3 cells; format: cell-based; settings: 1 μM
Description: as §1, §2

C=CC[C@@H]1/C=C(\C)C[C@H](C)C[C@H](OC)[C@H]2O[C@@](O)(C(=O)C(=O)N3CCCC[C@H]3C(=O)O[C@H](/C(C)=C/[C@@H]3CC[C@@H](O)[C@H](OC)C3)[C@H](C)[C@@H](O)CC1=O)[C@H](C)C[C@@H]2OC [FK506, tacrolimus, reference compound]
co-immunoprecipitation of Src with HA-FKBP12 (Src and HA-FKBP12): not

CCNc1nc(Nc2cc(F)c(C(=O)N3CCN(C(=O)CCC[C@@H]4/C=C(\C)C[C@H](C)C[C@H](OC)[C@H]5O[C@@](O)(C(=O)C(=O)N6CCCC[C@H]6C(=O)O[C@H](/C(C)=C/[C@@H]6CC[C@@H](O)[C@H](OC)C6)[C@H](C)[C@@H](O)CC4=O)[C@H](C)C[C@@H]5OC)CC3)cc2OC)ncc1C(F)(F)F [Compound 08-074]
cellular activity compared to parent compound (LRRK2; 3T3 or RAW264.7 cells, 2 h treatment): more potent cellular activity than its parent compound GNE-7915

C=CC(=O)N1CCN(c2nc(NCCC(=O)NCCNC(=O)CCC[C@@H](C)[C@@H](O)[C@H]3C(=O)N[C@@H](CC)C(=O)N(C)CC(=O)N(C)[C@@H](CC(C)C)C(=O)N[C@@H](C(C)C)C(=O)N(C)[C@@H](CC(C)C)C(=O)N[C@@H](C)C(=O)N[C@H](C)C(=O)N(C)[C@@H](CC(C)C)C(=O)N(C)[C@@H](CC(C)C)C(=O)N(C)[C@@H](C(C)C)C(=O)N3C)nc3c(F)c(-c4c(O)cccc4F)c(Cl)cc23)CC1 [Compound 07-014]
melting curve of the complex (KRAS and CypA): 2-stage melting curve

Cc1nc(Nc2ncc(C(=O)Nc3c(C)cccc3Cl)s2)cc(N2CCN(CCO)CC2)n1 [dasatinib, reference compound]
number of kinases inhibited >70% [1]: 9
time after drug washout at which phosphotyrosine signal is restored ([2]; then drug removed): ≤ 1 h

CO[C@H]1C[C@@H](C)C/C(C)=C/[C@@H](CCCC(=O)N2CCN(c3cc(Nc4ncc(C(=O)Nc5c(C)cccc5Cl)s4)nc(C)n3)CC2)C(=O)C[C@H](O)[C@@H](C)[C@@H](/C(C)=C/[C@@H]2CC[C@@H](O)[C@H](OC)C2)OC(=O)[C@@H]2CCCCN2C(=O)C(=O)[C@]2(O)O[C@H]1[C@@H](OC)C[C@H]2C [Compound 05-022]
dependence of activity on FKBP12 (FKBP12 [3]): dependent on FKBP12
inhibition of phosphotyrosine signal [4]: potently inhibits
durability of effect after washout ([2]; washed 3 times with PBS): durable after washout
growth inhibition (K562): FKBP-dependent growth inhibition
co-immunoprecipitation of Src with HA-FKBP12 (Src and HA-FKBP12): form a stable ternary complex

C=CC(=O)Nc1cc(Cl)cc(NC(=O)c2cnn(-c3ccc(OCC(=O)N4CCN(C(=O)CCC[C@@H](C)[C@@H](O)[C@H]5C(=O)N[C@@H](CC)C(=O)N(C)CC(=O)N(C)[C@@H](CC(C)C)C(=O)N[C@@H](C(C)C)C(=O)N(C)[C@@H](CC(C)C)C(=O)N[C@@H](C)C(=O)N[C@H](C)C(=O)N(C)[C@@H](CC(C)C)C(=O)N(C)[C@@H](CC(C)C)C(=O)N(C)[C@@H](C(C)C)C(=O)N5C)CC4)cc3)c2C(F)(F)F)c1 [Compound 08-058]
Sos-mediated nucleotide exchange (HRAS, CypA, Sos; 1 μM Ras.GDP, 1 μM Mant-GDP, 1 μM Sos): inhibits Sos-mediated nucleotide exchange
ternary complex formation (HRAS, CypA, Sos; HRAS, CypA): forms a ternary complex
Ras.Raf binding (Ras.Raf binding): does not seem to impair Ras.Raf binding

CO[C@H]1C[C@@H](C)C/C(C)=C/[C@@H](CCCC(=O)N2CCN(c3cc(Nc4ncc(C(=O)Nc5c(C)cccc5Cl)s4)nc(C)n3)CC2)C(=O)C[C@H](O)[C@@H](C)[C@@H](/C(C)=C/[C@@H]2CC[C@@H](O)[C@H](OC)C2)OC(=O)[C@@H]2CCCCN2C(=O)C(=O)[C@]2(O)O[C@H]1[C@@H](OC)C[C@H]2C [FK506-Dasatinib]
Kd (FKBP12 [5]): 23 nM

CCNc1nc(Nc2cc(F)c(C(=O)N3CCN(C(=O)CCC[C@@H]4/C=C(\C)C[C@H](C)C[C@H](OC)[C@H]5O[C@@](O)(C(=O)C(=O)N6CCCC[C@H]6C(=O)O[C@H](/C(C)=C/[C@@H]6CC[C@@H](O)[C@H](OC)C6)[C@H](C)[C@@H](O)CC4=O)[C@H](C)C[C@@H]5OC)CC3)cc2OC)ncc1C(F)(F)F [FK-GNE7915]
inhibition of LRRK2 autophosphorylation compared to parent (LRRK2): more efficacious than its parent molecule GNE7915

CO[C@H]1C[C@@H](C)C/C(C)=C/[C@@H](CCCC(=O)N2CCN(Cc3ccc(-c4ccc5ncnc(Nc6ccc(OCc7cccc(F)c7)c(Cl)c6)c5c4)o3)CC2)C(=O)C[C@H](O)[C@@H](C)[C@@H](/C(C)=C/[C@@H]2CC[C@@H](O)[C@H](OC)C2)OC(=O)[C@@H]2CCCCN2C(=O)C(=O)[C@]2(O)O[C@H]1[C@@H](OC)C[C@H]2C [FK-lapatinib]
IC50 of growth inhibition (SK-BR-3 cells): comparable to that of lapatinib
HER2 signaling (HER2): suppressed
